Experimental data: US9751840B2, “R-7-(3-aminomethyl-4-methoxyimino-3-methyl-pyrrolidin-1-yl)-1-cyclopropyl-6-fluoro-4-oxo-acid and L-aspartic acid salt, process for the preparation thereof and pharmaceutical composition comprising the same for antimicrobial” (ARIBIO CO. LTD., priority 2009, dated 2017)
Like-named read-outs stand apart in the source and are kept apart here.

Columns and labels:
Male ICR mice = experiment: Single dose toxicity in mice (LD50); details: single intraperitoneal dose, observed 14 days
Description: The following experiment was performed in order to observe the degree of toxicity of the L-aspartate according to the present invention.
Male ICR mice were used as experimental animals. 5 male ICR mice were divided into 6 dose groups, respectively and fasted except for water for 24 hours.

[1] = In vivo pharmacokinetic test; design: species or system SD rats; details: rats; for AUC(0-t) / Cmax / Tmax: SD, rat, plasma
Description: The L-aspartate and hydrochloride according to the present invention were orally or intravenously administered to SD rats, respectively and blood samples were collected at a predetermined time to compare in vivo pharmacokinetics.
Then, Cmax: maximum drug concentration, Tmax: maximum drug concentration time, T1/2: drug half-life, AUCO-t: area under the plasma concentration-time curve from time zero to t hours, and AUCO-inf: area under the plasma concentration-time curve from time zero to infinity.

Solubility test = format: physicochemical; details: room temperature, water
[2] = system: polychromatic erythrocyte with one or more nuclei (MNPCE); experiment: In vivo genotoxicity, micronucleus test; details: male mice, intraperitoneal, 7.5 mg/kg
Description: The following study performed to obtain in vivo genotoxicities, micronucleus test of L-aspartate and hydrochloric acid salt in male mice to the following procedure.

[3] = In vivo tissue distribution test; design: species or system ICR mice; details: mouse, po; for Kp: ICR, 100 mg/kg
Description: An in vivo tissue distribution test was performed in order to confirm the degree of drug distribution of the L-aspartate and hydrochloride according to the present invention in each organ. After 8-week-old ICR mice were purchased and adapted in the laboratory, each salt was orally administered to the mouse at a dose of 100 mg/kg. The mice were bled and sacrificed at a predetermined time and each organ was drawn to measure the concentration in each organ. After the administration of hydrochloride and L-aspartate, each organ concentration over time, the area under the corresponding time-concentration curve, and the ratio of permeation into tissue were shown in Tables 5 and 6.
Then, P ratio is a ratio of permeation into muscle and calculated as intramuscular AUC/intraplasmic AUC.

[4] = Stability test in distilled water; format: physicochemical; details: 30 mg in 100 ml distilled water
[5] = In vivo tissue distribution test; design: species or system ICR mice; details: ICR, mouse, spleen, po, 100 mg/kg; read-out: P ratio Spleen
[6] = male, testicle, ICR mice, p.o. 100 mg/kg, read-out: Testicle concentration
[7] = brain, ICR mice, p.o. 100 mg/kg, read-out: Brain concentration
[8] = heart, ICR mice, p.o. 100 mg/kg, read-out: Heart concentration
[9] = kidney, ICR mice, p.o. 100 mg/kg, read-out: Kidney concentration
[10] = liver, ICR mice, p.o. 100 mg/kg, read-out: Liver concentration
[11] = lung, ICR mice, p.o. 100 mg/kg, read-out: Lung concentration
[12] = muscle, ICR mice, p.o. 100 mg/kg, read-out: Muscle concentration
[13] = plasma, ICR mice, p.o. 100 mg/kg, read-out: Plasma concentration
[14] = spleen, ICR mice, p.o. 100 mg/kg, read-out: Spleen concentration
[15] = testicle, ICR mice, p.o. 100 mg/kg, read-out: Testicle concentration
[16] = thymus, ICR mice, p.o. 100 mg/kg, read-out: Thymus concentration

CON=C1CN(c2nc3c(cc2F)c(=O)c(C(=O)O)cn3C2CC2)C[C@@]1(C)CN.Cl [Hydrochloride (Comparative Example 3)]
Lethal dose 50 (Male ICR mice): 176 mg/kg | AUC(0-t) ([1]; iv, i.v. 10 mg/kg): 8.72 ± 0.33 µg·h/mL | Cmax ([1]; iv, i.v. 10 mg/kg): 4.46 ± 0.96 µg/mL | Tmax ([1]; iv, i.v. 10 mg/kg): 0 h | AUC(0-t) ([1]; po, p.o. 100 mg/kg): 44.4 ± 21.4 µg·h/mL | Cmax ([1]; po, p.o. 100 mg/kg): 7.62 ± 3.93 µg/mL | Tmax ([1]; po, p.o. 100 mg/kg): 2.13 ± 1.97 h | BA (%) ([1]; p.o. 100 mg/kg, calculated by ratio of AUC0-t): 50.96% | solubility (Solubility test): 93.3 mg/mL | MNPCE number [2]: singificantly increase | Kp ([3]; brain, read-out: P ratio Brain): 0.27 | Kp ([3]; heart, read-out: P ratio Heart): 4.19 | Kp ([3]; kidney, read-out: P ratio Kidney): 6.59 | Kp ([3]; liver, read-out: P ratio Liver): 10.5 | Kp ([3]; lung, read-out: P ratio Lung): 5.59 | Kp ([3]; muscle, read-out: P ratio Muscle): 3.92 | Kp ([3]; thymus, read-out: P ratio Thymus): 4.83 | Kp ([3]; male, testicle, read-out: P ratio Testicle): 1.7 | concentration at 0.5 h [3, 6]: 4790 ng/g | concentration at 1 h [3, 6]: 8360 ng/g | concentration at 8 h [3, 6]: 7770 ng/g | concentration at 0.5 h [3, 7]: 2510 ng/g | concentration at 1 h [3, 7]: 3090 ng/g | concentration at 1.5 h [3, 7]: 2720 ng/g | concentration at 2 hr [3, 7]: 3180 ng/g | concentration at 3 h [3, 7]: 1990 ng/g | concentration at 5 h [3, 7]: 1600 ng/g | concentration at 8 h [3, 7]: 730 ng/g | concentration at 0.5 h [3, 8]: 59300 ng/g | concentration at 1 h [3, 8]: 61200 ng/g | concentration at 1.5 hr [3, 8]: 52700 ng/g | concentration at 2 hr [3, 8]: 57600 ng/g | concentration at 3 h [3, 8]: 25500 ng/g | concentration at 5 h [3, 8]: 17300 ng/g | concentration at 8 h [3, 8]: 8860 ng/g | concentration at 0.5 h [3, 9]: 90800 ng/g | concentration at 1 h [3, 9]: 87800 ng/g | concentration at 1.5 h [3, 9]: 75500 ng/g | concentration at 2 hr [3, 9]: 69900 ng/g | concentration at 3 h [3, 9]: 43000 ng/g | concentration at 5 h [3, 9]: 32800 ng/g | concentration at 8 h [3, 9]: 18000 ng/g | concentration at 0.5 h [3, 10]: 161000 ng/g | concentration at 1 h [3, 10]: 125000 ng/g | concentration at 1.5 h [3, 10]: 113000 ng/g | concentration at 2 hr [3, 10]: 109000 ng/g | concentration at 3 h [3, 10]: 69000 ng/g | concentration at 5 h [3, 10]: 55700 ng/g | concentration at 8 h [3, 10]: 27000 ng/g | concentration at 0.5 h [3, 11]: 82800 ng/g | concentration at 1 h [3, 11]: 79500 ng/g | concentration at 1.5 h [3, 11]: 73600 ng/g | concentration at 2 hr [3, 11]: 63700 ng/g | concentration at 3 h [3, 11]: 38800 ng/g | concentration at 5 h [3, 11]: 23400 ng/g | concentration at 8 h [3, 11]: 11400 ng/g | concentration at 0.5 h [3, 12]: 39800 ng/g | concentration at 1 h [3, 12]: 52000 ng/g | concentration at 1.5 h [3, 12]: 50400 ng/g | concentration at 2 hr [3, 12]: 50800 ng/g | concentration at 3 h [3, 12]: 28300 ng/g | concentration at 5 h [3, 12]: 18400 ng/g | concentration at 8 h [3, 12]: 8260 ng/g | concentration at 0.5 h [3, 13]: 15.5 µg/mL | concentration at 1 h [3, 13]: 14.2 µg/mL | concentration at 1.5 h [3, 13]: 12.1 µg/mL | concentration at 2 hr [3, 13]: 12 µg/mL | concentration at 3 h [3, 13]: 6.24 µg/mL | concentration at 5 h [3, 13]: 4.32 µg/mL | concentration at 8 h [3, 13]: 2.29 µg/mL | AUC(0-t) ([3]; plasma, ICR mice, p.o. 100 mg/kg, read-out: AUC0-t Plasma): 53.6 µg·h/mL | concentration at 0.5 h [3, 14]: 102000 ng/g | concentration at 1 h [3, 14]: 112000 ng/g | concentration at 1.5 hr [3, 14]: 107000 ng/g | concentration at 2 hr [3, 14]: 102000 ng/g | concentration at 3 h [3, 14]: 59800 ng/g | concentration at 5 h [3, 14]: 42100 ng/g | concentration at 8 h [3, 14]: 21500 ng/g | concentration at 1.5 hr [3, 15]: 12700 ng/g | concentration at 2 hr [3, 15]: 17000 ng/g | concentration at 3 h [3, 15]: 14200 ng/g | concentration at 5 h [3, 15]: 12900 ng/g | concentration at 0.5 h [3, 16]: 24600 ng/g | concentration at 1 h [3, 16]: 58000 ng/g | concentration at 1.5 hr [3, 16]: 60800 ng/g | concentration at 2 hr [3, 16]: 61300 ng/g | concentration at 3 h [3, 16]: 38400 ng/g | concentration at 5 h [3, 16]: 25700 ng/g | concentration at 8 h [3, 16]: 12800 ng/g | Content (%) 60? (after 3 weeks) ([4]; 60?, 3 weeks): 90.0% | Content (%) Initial ([4]; initial): 97.9% | Content (%) Room temperature (after 3 weeks) ([4]; room temperature, 3 weeks): 98.0% | Kp [5]: 8.66
